From patent publication US11230569B2, “Antiplasmodial compounds” (UNIVERSITY OF CENTRAL FLORIDA RESEARCH FOUNDATION, INC., priority 2018, dated 2022)
Where two headings read alike, the source gives them in different places.

Columns and labels:
Histone H4 = experiment: Western blot of parasite extracts with anti-acetyl histone 4 antibody; format: cell-based, Plasmodium; details: mixed stage culture, EC90 concentrations, 4 hrs
Method: Mixed stage culture was incubated with EC90 concentrations of 130134 Analog 2 and PF1070A for 4 hrs and cell free parasite extracts were subjected to western blot analysis using anti-acetyl histone 4 antibody.
Of the hits found, several have known targets in other model systems, allowing us to expedite target analysis. One such compound is Chlamydocin, a known Class I HDAC inhibitor. Western blot analysis of Plasmodium extracts confirms that analogs of this compound causes hyperacetylation of histone 4 and is suspected to target Plasmodium HDAC1.

P. falciparum Dd2 = experiment: SYBR Green I-based fluorescence assay, intraerythrocytic growth inhibition; format: cell-based, Plasmodium falciparum
Source text: (§1) In the pursuit to discover next generation of antimalarials from novel areas of chemical space, a large library of diverse fungi was screened to discover secondary metabolites active against malaria parasite. […] The Cichewicz fungal collection contains tens of thousands of fungal isolates that were secured from diverse habitats and ecological niches across the United States. It is believed that fungal secondary metabolites, which are underexplored for antimalarial drug discovery, provide a unique opportunity to explore medicinally relevant, but untapped chemical space for the discovery of essential malaria therapeutics. Libraries of 750 pure compounds, and of 460 extracts obtained from diverse fungal sources have been screened for their ability to inhibit intraerythrocytic growth of chloroquine-resistant P. falciparum Dd2 using a SYBR Green I-based fluorescence assay. As a counter screen, the cytotoxicity of the top ten extracts in HepG2 cells was evaluated using the MTS ((3-(4,5 dimethylthiazol-2-yl)-5-(3-carboxymethoxyphenyl)-2-(4-sulfophenyl)-2H-tetrazolium, inner salt) cell proliferation assay. This screening has identified potent and selective novel antiplasmodial compounds. These unique pharmacophores from wide areas of chemical space would provide chemical starting points to develop lead compounds for drugs against malaria.
Ten millimolar compound stocks in DMSO were diluted by ½, ⅕, and/or 1/10 fold dilutions in ultrapure water or RPMI 1640. Varying concentrations of compound were added to culture at a 1% parasitemia and 2% hematocrit in 96-well black plates. Assay conditions maintained maximum DMSO concentrations less than 0.125% per dilution. Positive (baseline 0% growth) controls consisted of Chloroquine at 1 μM final concentration. Following 72 h incubation at 37° C. in 5% CO2, dilution plates were frozen at −80° C. for a minimum of 30 minutes. Dilution plates were allowed to thaw followed by lysis treatment and SYBR Green I incorporation. DNA quantification was determined using a fluorescence reading on a Synergy H4 multimode plate reader set at 485 nm excitation and 530 nm emission as previously reported (Roberts, Iyamu et al. 2016). EC50 was calculated from a dose response curve that was generated from a concentration range of 0-10 μM using GraphPad Prism v5.0.
Different dilutions of the compound/fraction in 1 μl of the culture medium were added to 99 μl of P. falciparum culture at a 1% parasitemia and 2% hematocrit in 96-well plates. Maximum DMSO concentration in the culture never exceeded 0.125%. Chloroquine at 1 μM was used as a positive control to determine the baseline value. Following 72 hours incubation at 37° C., the plates were frozen at −80° C. After thawing, 100 μL of lysis buffer (with SYBR Green I dye 1:10,000) was added to each well and plates were incubated at room temperature for 30 minutes prior to reading.
Culture was maintained following a modified Trager and Jensen protocol.^xxv Multi-drug resistant P. falciparum line Dd2 was grown in RPMI 1640 supplemented with 25 mM HEPES pH 7.4, 26 mM NaHCO3, 2% dextrose, 15 mg/L hypoxanthine, 25 mg/L gentamycin and 0.5% Albumax II in human A+ erythrocytes. Culture was maintained at 4% hematocrit at 37° C. with 5% CO2.
Plates were subsequently frozen at −80° C. to facilitate lysis. After thawing, plates were incubated with 1×SYBR Green I in lysis buffer (20 mM Tris-HCl, 0.08% saponin, 5 mM EDTA, 0.8% Triton X-100) for 45-60 min at room temperature. Fluorescence was measured at an excitation wavelength 485 nm, emission 530 nm in a Synergy Neo2 multi-mode reader (BioTek, Winsooki, Vt.). RFUs were normalized based on chloroquine treated and no treatment controls. For all compounds listed, serial dilutions were prepared in RPMI with final assay conditions of 0.2% DMSO or below.

HepG2 human hepatocytes = experiment: MTS cytotoxicity assay in HepG2 cells (counter screen, selectivity); format: cell-based; details: for Selectivity Index: Hep G2 cell EC50 : P. falciparum EC50, pure compound library hits
Source text: as §1
Cross selectivity for human cells was determined using HepG2 human hepatocytes and an MTS (3-(4,5-Dimethylthiazol-2-yl)-5-(3-carboxymethoxyphenyl)-2-(4-sulfophenyl)-2H-tetrazolium) based cytotoxicity assay. After seeding 2,250 cells per well into 384-well microtiter plates, cells were incubated for 24 h. Next, serial dilutions of compounds were added to the seeded plates and incubated for additional 48 h at 37° C., and 5% CO2. Zero percent growth control wells were incubated with 5% Triton X-100 for 5 min prior to MTS addition and incubated for 4 h at identical growth conditions. Absorbance was then read at 490 nm in a Synergy Neo2 multi-mode reader (BioTek, Winsooki, Vt.) and values were normalized based on detergent lysed and no treatment controls.

PfHDAC1 = PfHDAC1 (Plasmodium falciparum, UniProt Q7K6A1); experiment: PfHDAC1 assay; format: biochemical
Sequence of PfHDAC1 (Q7K6A1 entry or part of it): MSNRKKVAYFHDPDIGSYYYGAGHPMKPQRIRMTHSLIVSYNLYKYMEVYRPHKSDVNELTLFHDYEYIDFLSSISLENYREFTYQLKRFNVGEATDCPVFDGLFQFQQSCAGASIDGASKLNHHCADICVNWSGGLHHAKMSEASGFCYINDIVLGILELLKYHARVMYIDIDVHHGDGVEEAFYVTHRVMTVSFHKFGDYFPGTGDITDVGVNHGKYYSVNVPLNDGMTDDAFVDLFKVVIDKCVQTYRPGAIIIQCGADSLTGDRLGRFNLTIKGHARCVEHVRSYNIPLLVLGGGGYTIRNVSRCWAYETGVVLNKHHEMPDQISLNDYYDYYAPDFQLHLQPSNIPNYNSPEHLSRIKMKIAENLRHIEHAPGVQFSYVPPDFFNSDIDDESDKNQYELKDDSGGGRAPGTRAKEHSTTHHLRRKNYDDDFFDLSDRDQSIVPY
Source text: (§2) Culture followed until 54 HPI. Scale bar represents 1 micron. FIG. 10(B) is a western blot showing acetylation following treatment at 6 HPI with 137LJ57K, initial impure extract of 137LJ57K1.
FIGS. 17-20 provide multiple versions of cyclic tetrapeptides along with their EC50s for various noted assays including Pf, Hep G2 and PfHDAC1 assays

trophozoites = experiment: IFA and western blot for acetylation after treatment at 6 HPI; format: cell-based; details: culture followed until 54 HPI
Source text: Culture followed until 54 HPI. Scale bar represents 1 micron.
as §2

P. falciparum = details: literature; cited from earlier work
[1] = Plasmodium falciparum, DD2, 72 h
[2] = Plasmodium falciparum, Top hits from pure compound library, chloroquine-resistant P. falciparum Dd2, 72 h, read-out: EC50

For `CC1NC(=O)C(CCCCCC(=O)C2CO2)NC(=O)C2CCCN2C(=O)C(Cc2ccccc2)NC1=O` (centres unmarked) [130134 Analog 1, 1-Alanine-chlamydocin], the “hyperacetylation of Histone H4” value (Histone H4) was “causes hyperacetylation of Histone H4”, the EC50 (P. falciparum Dd2; [1]) was 9 nM and the “Selectivity Index” value (HepG2 human hepatocytes) was 3.
With `CCC(C)C1NC(=O)C(Cc2ccccc2)NC(=O)C(CCCCCC(=O)C2CO2)NC(=O)C2CCCCN2C1=O` (centres unmarked) [130134 Analog 2, PF1070A] the “hyperacetylation of Histone H4” value (Histone H4) was “causes hyperacetylation of Histone H4”, the EC50 (P. falciparum Dd2; [1]) was 37 nM and the EC50 (P. falciparum Dd2; Plasmodium falciparum, DD2, read-out: EC50 against multidrug resistant malaria) was 37 nM. The “selectivity (in words)” value (HepG2 human hepatocytes) was “selective” and the “Selectivity Index” value (HepG2 human hepatocytes) was >23.
In the case of `CCC(C)C1NC(=O)C(Cc2ccccc2)NC(=O)C(CCCCCC(=O)C2CO2)NC(=O)C2CCCCN2C1=O` (centres unmarked) [Compound 137LJ57K1], the EC50 (PfHDAC1) is reported as < 0.2 nM, the EC50 (P. falciparum Dd2; Plasmodium falciparum, DD2, read-out: Dd2 EC50 (nM)) is reported as 88 nM and the EC50 (HepG2 human hepatocytes; Homo sapiens, HepG2) is reported as 13100 nM. For the same compound, the hyperacetylation (trophozoites) was “hyperacetylation during trophozoite stage”.
For `C/C1=C\[C@H](C)C[C@H](C)CC(=O)C[C@H](c2ccc(O)cc2)NC(=O)[C@@H](Cc2c(Br)[nH]c3ccccc23)N(C)C(=O)[C@H](C)NC(=O)[C@@H](C)C1` [Compound 120030], the EC50 (P. falciparum Dd2; [1]) was 271 nM and the “Selectivity Index” value (HepG2 human hepatocytes) was >92.25.
For `C=C1[C@@H](O)[C@@H]2O[C@]3(CC[C@H](/C=C/[C@@H](C)[C@@H]4CC(C)=C[C@@]5(O[C@H](C[C@@](C)(O)C(=O)O)CC[C@H]5O)O4)O3)CC[C@H]2O[C@@H]1[C@@H](O)C[C@H](C)[C@H]1O[C@@]2(CCCCO2)CC[C@H]1C` [Compound 120033], the EC50 (P. falciparum Dd2; [1]) was 55 nM and the “Selectivity Index” value (HepG2 human hepatocytes) was >77.
With `COC1=CC(c2ccc[nH]2)=N/C1=C/NCC(C)C` [Compound 120036] the EC50 (P. falciparum Dd2; [2]) was 180 nM and the “Selectivity Index” value (HepG2 human hepatocytes) was 57.31.
For `Oc1cc(O)c2c(c1)O[C@H](c1ccc(O)c(O)c1)[C@@H](O)C2` [Compound 120051], the EC50 (P. falciparum Dd2; [2]) was 47 nM and the “Selectivity Index” value (HepG2 human hepatocytes) was 11.44.
For `C[C@@]12OC(=O)[C@]1(C(O)[C@@H]1C=CCCC1)NC(=O)[C@@H]2CCCl` (some centres unmarked) [Compound 120066], the EC50 (P. falciparum Dd2; [1]) was 47 nM and the “Selectivity Index” value (HepG2 human hepatocytes) was 290.28.
In the case of `CC[C@H]1/C=C/C=C/C[C@@H](C)[C@H](O)[C@@](C)(O)C(=O)[C@@H](C)[C@H](O)[C@@H](C)C(=O)[C@@H](C)[C@H](O)[C@@H](C)/C=C/C(=O)O[C@@H]2[C@H](C)[C@H](CC1)O[C@]1(CC[C@H](C)[C@H](C[C@@H](C)O)O1)[C@H]2C` [Compound 120086], the EC50 (P. falciparum Dd2; [2]) is reported as 361 nM and the “Selectivity Index” value (HepG2 human hepatocytes) is reported as 14.62.
With `O=C(c1cc(Cl)c(Cl)[nH]1)c1c(O)cccc1O` [Compound 130115] the EC50 (P. falciparum Dd2; [1]) was 491 nM and the “Selectivity Index” value (HepG2 human hepatocytes) was >32.
In the case of `CC(C)[C@H]1CC[C@@](O)(CCl)[C@H]2C(=O)OCC(C(=O)O)=C[C@H]12` [Compound 130129], the EC50 (P. falciparum Dd2; [1]) is reported as 361 nM and the “Selectivity Index” value (HepG2 human hepatocytes) is reported as 3.
With `CC(C)C1CCC(O)(CCl)C2C(=O)OCC(C(=O)O)=CC12` (centres unmarked) [Compound 130130] the EC50 (P. falciparum Dd2; [1]) was 469 nM and the “Selectivity Index” value (HepG2 human hepatocytes) was 3.
For `CC(C)[C@H]1CC[C@@](O)(COC(=O)/C(=C/[C@@H]2[C@@H](C(C)C)CCC3(O)COC(=O)[C@@H]23)CO)[C@H]2C(=O)OCC(C(=O)O)=C[C@H]12` (some centres unmarked) [Compound 130131], the EC50 (P. falciparum Dd2; [2]) was 367 nM and the “Selectivity Index” value (HepG2 human hepatocytes) was >54.
For `CC[C@H](C)[C@@H](C(=O)O[C@@H](CC(C)C)C(=O)N[C@@H](CC(C)C)C(=O)N[C@@H](C)/C=C/C(=O)N1C(=O)C=C(OC)[C@@H]1C)N(C)C` [gallinamide A], the IC50 (P. falciparum) is given as 8400 nM.
In the case of Chlamydocin [Compound 130134], the EC50 (P. falciparum Dd2; Top hits from pure compound library, chloroquine-resistant P. falciparum Dd2, 72 h, read-out: EC50) is reported as 24.7 nM and the “Selectivity Index” value (HepG2 human hepatocytes) is reported as 7.
